Data taken from US20250179078A1, “INHIBITORS OF NLRP3” (PTC THERAPEUTICS, INC., priority 2022, published 2025).
pIC50: −log10 of the molar value.

biological target: T1, NLRP3 (Homo sapiens, UniProt Q96P20); assay: IL-1β Secretion Assay (NLRP3-dependent IL1β secretion in THP1 cells); assay type: cell-based; details: PMA-differentiated THP-1 cells; compounds incubated 20 h; 2.5 μM Nigericin 3 h; HTRF IL-1β readout; read-out: IC50 IL-1β Inhibition
T1 construct: host or cells: THP-1 cells differentiated with PMA
Protocol: Monocytic THP-1 cells (ATCC: TIB-202) were maintained in growth media consisting of RPMI 1640 medium (ThermoFisher, Cat #11875-085), 10% FBS (ThermoFisher) and 0.05 mM β-mercaptoethanol (ThermoFisher, Cat #21985-023), according to the provider's instructions. The cell concentration was adjusted to 7.5×10^5 cells/mL, and plated in complete growth media with a final concentration of 100 ng/mL phorbol 12-myristate 13-acetate (PMA, Sigma #P8139). Cells were seeded at 100 µL/well into a 96-well cell culture plate (ThermoFisher Cat #165305) and allowed to differentiate for 24 h in a cell culture incubator at 37° C. with 5% CO2. Cells were washed 1× with 100 ul PBS and replaced with fresh RPMI+5% FBS. Compounds were serial diluted in DMSO with 3 fold dilution for a total of 7 concentrations. Diluted compounds were added to the cells at a ratio of 1:200 and incubated for 20 h. The NLRP3 inflammasome was activated with the addition of 2.5 μM Nigericin (Sigma: Cat #SML1779-1 ml), for 3 h. After incubation, 15 μL of conditioned media was removed and assayed for levels of IL-1β using the HTRF IL-1β assay kit (Cisbio: Cat #62HIL1BPEH) as per the manufacturer's instructions.
Compounds, once produced and prepared according to the present invention, can be assessed in variety of assays to characterize their activities. For example, NLRP3-dependent IL1β secretion was evaluated in THP1 cells. IC50 values of IL1β inhibition were calculated from the plot of percentage of inhibition versus the inhibitor concentration by a logistics fit. TABLE I depict examples of compounds according to generic Formula I. Data which is <1 nM is listed as *****; data 1-10 nM is listed as ****; data 10-100 nM is listed as ***, data 100-300 nM is listed as **, data ≥300 nM is listed as *.

T1 sequence (Q96P20 whole entry): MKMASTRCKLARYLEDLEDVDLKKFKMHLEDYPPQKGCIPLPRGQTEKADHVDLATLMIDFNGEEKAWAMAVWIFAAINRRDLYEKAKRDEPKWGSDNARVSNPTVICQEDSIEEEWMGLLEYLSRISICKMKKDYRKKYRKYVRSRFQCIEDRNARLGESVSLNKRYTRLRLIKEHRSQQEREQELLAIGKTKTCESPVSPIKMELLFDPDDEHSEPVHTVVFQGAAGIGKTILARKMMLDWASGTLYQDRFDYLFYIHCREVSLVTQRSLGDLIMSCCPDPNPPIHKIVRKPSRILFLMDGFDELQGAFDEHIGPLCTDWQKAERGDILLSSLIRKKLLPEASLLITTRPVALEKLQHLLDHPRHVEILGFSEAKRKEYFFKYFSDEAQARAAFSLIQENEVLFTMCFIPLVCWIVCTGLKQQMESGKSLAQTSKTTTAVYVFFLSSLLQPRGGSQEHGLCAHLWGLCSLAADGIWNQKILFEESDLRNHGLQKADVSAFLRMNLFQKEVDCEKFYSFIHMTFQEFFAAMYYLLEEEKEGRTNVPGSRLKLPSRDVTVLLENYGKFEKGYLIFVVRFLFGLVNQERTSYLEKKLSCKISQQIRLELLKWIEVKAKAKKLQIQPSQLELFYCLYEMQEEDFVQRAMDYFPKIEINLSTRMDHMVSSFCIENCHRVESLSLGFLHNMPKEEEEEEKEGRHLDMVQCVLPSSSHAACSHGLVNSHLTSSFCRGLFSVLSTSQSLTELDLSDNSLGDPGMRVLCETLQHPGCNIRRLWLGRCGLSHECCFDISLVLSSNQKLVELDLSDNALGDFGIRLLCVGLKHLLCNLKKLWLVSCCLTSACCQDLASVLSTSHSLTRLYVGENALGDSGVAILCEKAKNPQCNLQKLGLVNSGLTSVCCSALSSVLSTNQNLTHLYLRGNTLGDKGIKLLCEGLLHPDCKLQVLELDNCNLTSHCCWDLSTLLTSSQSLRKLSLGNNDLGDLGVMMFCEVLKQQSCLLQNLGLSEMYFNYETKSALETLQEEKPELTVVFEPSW

Row | Compound | pIC50
1 | CCc1ccc(-c2nnc(N[C@@H]3CCCN(C)C3)n3cccc23)c(OC(F)(F)F)c1 [Compound 42, 1-[4-ethyl-2-(trifluoromethoxy)phenyl]-N-[(3R)-1-methylpiperidin-3-yl]pyrrolo[1,2-d][1,2,4]triazin-4-amine] | 8.00 to 9.00
2 | CCOc1ccc(-c2nnc(N[C@@H]3CCCN(C)C3)n3cccc23)c(OC(F)(F)F)c1 [Compound 43, 1-[4-ethoxy-2-(trifluoromethoxy)phenyl]-N-[(3R)-1-methylpiperidin-3-yl]pyrrolo[1,2-d][1,2,4]triazin-4-amine] | 7.00 to 8.00
3 | CN1CCC[C@@H](Nc2nnc(-c3ccc(OC(F)F)cc3OC(F)(F)F)c3cccn23)C1 [Compound 44, 1-[4-(difluoromethoxy)-2-(trifluoromethoxy)phenyl]-N-[(3R)-1-methylpiperidin-3-yl]pyrrolo[1,2-d][1,2,4]triazin-4-amine] | > 9.00
4 | Cc1ccc(-c2nnc(N[C@@H]3CCCN(CCO)C3)n3cccc23)c(OC(F)F)c1 [Compound 45, 2-[(3R)-3-({1-[2-(difluoromethoxy)-4-methylphenyl]pyrrolo[1,2-d][1,2,4]triazin-4-yl}amino)piperidin-1-yl]ethan-1-ol] | 7.00 to 8.00
5 | CCN1CC[C@H](O)[C@@H](Nc2nnc(-c3ccc(C(F)(F)F)cc3OC(F)F)c3cccn23)C1 [Compound 46, (3S,4S)-3-({1-[2-(difluoromethoxy)-4-(trifluoromethyl)phenyl]pyrrolo[1,2-d][1,2,4]triazin-4-yl}amino)-1-ethylpiperidin-4-ol] | 7.00 to 8.00
6 | COc1ccc(-c2nnc(N[C@@H]3CCCN(C)C3)n3cccc23)c(Br)c1 [Compound 47, 1-(2-bromo-4-methoxyphenyl)-N-[(3R)-1-methylpiperidin-3-yl]pyrrolo[1,2-d][1,2,4]triazin-4-amine] | 7.00 to 8.00
7 | CCN1CC[C@@H](O)[C@@H](Nc2nnc(-c3ccc(C(F)(F)F)cc3OC(F)F)c3cccn23)C1 [Compound 48, (3S,4R)-3-({1-[2-(difluoromethoxy)-4-(trifluoromethyl)phenyl]pyrrolo[1,2-d][1,2,4]triazin-4-yl}amino)-1-ethylpiperidin-4-ol] | > 9.00
8 | Cc1cc(C(F)(F)F)cc(OC(F)F)c1-c1nnc(N[C@@H]2CCCN(C)C2)n2cccc12 [Compound 49, 1-[2-(difluoromethoxy)-6-methyl-4-(trifluoromethyl)phenyl]-N-[(3R)-1-methylpiperidin-3-yl]pyrrolo[1,2-d][1,2,4]triazin-4-amine] | 7.00 to 8.00
9 | CCN1CCC[C@@H](Nc2nnc(-c3ccc(OC)cc3OC(F)(F)F)c3c(F)ccn23)C1 [Compound 50, N-[(3R)-1-ethylpiperidin-3-yl]-8-fluoro-1-[4-methoxy-2-(trifluoromethoxy)phenyl]pyrrolo[1,2-d][1,2,4]triazin-4-amine] | > 9.00
10 | COc1ccc(-c2nnc(N[C@@H]3CCCN(CCO)C3)n3ccc(F)c23)c(OC(F)(F)F)c1 [Compound 51, 2-[(3R)-3-({8-fluoro-1-[4-methoxy-2-(trifluoromethoxy)phenyl]pyrrolo[1,2-d][1,2,4]triazin-4-yl}amino)piperidin-1-yl]ethan-1-ol] | 8.00 to 9.00
11 | COc1ccc(-c2nnc(N[C@@H]3C[C@@H](F)CN(C)C3)n3ccc(F)c23)c(OC(F)(F)F)c1 [Compound 52, 8-fluoro-N-[(3R,5R)-5-fluoro-1-methylpiperidin-3-yl]-1-[4-methoxy-2-(trifluoromethoxy)phenyl]pyrrolo[1,2-d][1,2,4]triazin-4-amine] | 8.00 to 9.00
12 | CCN1C[C@H](F)C[C@@H](Nc2nnc(-c3ccc(OC)cc3OC(F)(F)F)c3c(F)ccn23)C1 [Compound 53, N-[(3R,5R)-1-ethyl-5-fluoropiperidin-3-yl]-8-fluoro-1-[4-methoxy-2-(trifluoromethoxy)phenyl]pyrrolo[1,2-d][1,2,4]triazin-4-amine] | 8.00 to 9.00
13 | COc1ccc(-c2nnc(N[C@H]3C[C@@](C)(O)C3)n3ccc(F)c23)c(OC(F)(F)F)c1 [Compound 54, (1s,3s)-3-({8-fluoro-1-[4-methoxy-2-(trifluoromethoxy)phenyl]pyrrolo[1,2-d][1,2,4]triazin-4-yl}amino)-1-methylcyclobutan-1-ol] | 7.00 to 8.00
14 | COc1ccc(-c2nnc(N[C@@H]3CCCN(C)C3)n3ccc(F)c23)c(OC(F)F)c1 [Compound 55, 1-[2-(difluoromethoxy)-4-methoxyphenyl]-8-fluoro-N-[(3R)-1-methylpiperidin-3-yl]pyrrolo[1,2-d][1,2,4]triazin-4-amine] | 7.00 to 8.00
15 | CCN1CCC[C@@H](Nc2nnc(-c3ccc(OC)cc3OC(F)F)c3c(F)ccn23)C1 [Compound 56, 1-[2-(difluoromethoxy)-4-methoxyphenyl]-N-[(3R)-1-ethylpiperidin-3-yl]-8-fluoropyrrolo[1,2-d][1,2,4]triazin-4-amine] | > 9.00
16 | COc1ccc(-c2nnc(N[C@@H]3CCCN(CCO)C3)n3ccc(F)c23)c(OC(F)F)c1 [Compound 57, 2-[(3R)-3-({1-[2-(difluoromethoxy)-4-methoxyphenyl]-8-fluoropyrrolo[1,2-d][1,2,4]triazin-4-yl}amino)piperidin-1-yl]ethan-1-ol] | 7.00 to 8.00
17 | COc1ccc(-c2nnc(N[C@H]3C[C@@](C)(O)C3)n3ccc(F)c23)c(OC(F)F)c1 [Compound 58, (1s,3s)-3-({1-[2-(difluoromethoxy)-4-methoxyphenyl]-8-fluoropyrrolo[1,2-d][1,2,4]triazin-4-yl}amino)-1-methylcyclobutan-1-ol] | 7.00 to 8.00
18 | CCN1CCC[C@@H](Nc2nnc(-c3ccc(OC)cc3OC(F)(F)F)c3cccn23)C1 [Compound 59] | > 9.00
19 | COc1ccc(-c2nnc(N[C@@H]3C[C@@H](F)CN(C)C3)n3cccc23)c(OC(F)(F)F)c1 [Compound 60, N-[(3R,5R)-5-fluoro-1-methylpiperidin-3-yl]-1-[4-methoxy-2-(trifluoromethoxy)phenyl]pyrrolo[1,2-d][1,2,4]triazin-4-amine] | 8.00 to 9.00
20 | COc1ccc(-c2nnc(N[C@@H]3CCCN(CCO)C3)n3cccc23)c(OC(F)(F)F)c1 [Compound 61, 2-[(3R)-3-({1-[4-methoxy-2-(trifluoromethoxy)phenyl]pyrrolo[1,2-d][1,2,4]triazin-4-yl}amino)piperidin-1-yl]ethan-1-ol] | > 9.00
21 | COc1ccc(-c2nnc(N[C@@H]3CCC[C@H](O)C3)n3cccc23)c(OC(F)(F)F)c1 [Compound 62, (1S,3R)-3-({1-[4-methoxy-2-(trifluoromethoxy)phenyl]pyrrolo[1,2-d][1,2,4]triazin-4-yl}amino)cyclohexan-1-ol] | 7.00 to 8.00
22 | C[C@@H](O)CNc1nnc(-c2ccc(C(F)(F)F)cc2OC(F)F)c2cccn12 [Compound 63, (2R)-1-({1-[2-(difluoromethoxy)-4-(trifluoromethyl)phenyl]pyrrolo[1,2-d][1,2,4]triazin-4-yl}amino)propan-2-ol] | 8.00 to 9.00
23 | COc1ccc(-c2nnc(NCCO)n3cccc23)c(OC(F)(F)F)c1 [Compound 64, 2-({1-[4-methoxy-2-(trifluoromethoxy)phenyl]pyrrolo[1,2-d][1,2,4]triazin-4-yl}amino)ethan-1-ol] | 7.00 to 8.00
24 | COc1ccc(-c2nnc(NC[C@H](C)O)n3cccc23)c(OC(F)(F)F)c1 [Compound 65, (2S)-1-({1-[4-methoxy-2-(trifluoromethoxy)phenyl]pyrrolo[1,2-d][1,2,4]triazin-4-yl}amino)propan-2-ol] | 7.00 to 8.00
25 | COc1ccc(-c2nnc(NCC(C)(C)O)n3cccc23)c(OC(F)(F)F)c1 [Compound 66, 1-({1-[4-methoxy-2-(trifluoromethoxy)phenyl]pyrrolo[1,2-d][1,2,4]triazin-4-yl}amino)-2-methylpropan-2-ol] | 7.00 to 8.00
26 | COc1ccc(-c2nnc(NC3CCOCC3)n3cccc23)c(OC(F)(F)F)c1 [Compound 67, 1-[4-methoxy-2-(trifluoromethoxy)phenyl]-N-(oxan-4-yl)pyrrolo[1,2-d][1,2,4]triazin-4-amine] | 8.00 to 9.00
27 | COc1ccc(-c2nnc(N[C@@H]3CCOC3)n3cccc23)c(OC(F)(F)F)c1 [Compound 68, 1-[4-methoxy-2-(trifluoromethoxy)phenyl]-N-[(3R)-oxolan-3-yl]pyrrolo[1,2-d][1,2,4]triazin-4-amine] | 7.00 to 8.00
28 | COc1ccc(-c2nnc(NCc3nccn3C)n3cccc23)c(OC(F)(F)F)c1 [Compound 69, 1-[4-methoxy-2-(trifluoromethoxy)phenyl]-N-[(1-methyl-1H-imidazol-2-yl)methyl]pyrrolo[1,2-d][1,2,4]triazin-4-amine] | 7.00 to 8.00
29 | COc1ccc(-c2nnc(NC[C@@H](C)O)n3cccc23)c(OC(F)(F)F)c1 [Compound 70, (2R)-1-({1-[4-methoxy-2-(trifluoromethoxy)phenyl]pyrrolo[1,2-d][1,2,4]triazin-4-yl}amino)propan-2-ol] | 8.00 to 9.00
